# Experimental data reported in patent US12582654B2, “Cyano-substituted pyridine and cyano-substituted pyrimidine compound and preparation method therefor and application thereof” (BEIJING SCITECH-MQ PHARMACEUTICALS LIMITED, priority 2019, dated 2026).
# Legend:
# [1] = molecular target: T1, Ba/F3 ETV6-FGFR4-V550L cells (Homo sapiens, UniProt P22455, V550L, cells depend on it); test: Inhibition of cell proliferation (CCK-8), Ba/F3 ETV6-FGFR4-V550L cells; type: cell-based; conditions: 72 hours of incubation, read-out: Ba/F3 ETV6-FGFR4-V550L IC50
# T1 construct: fused on or other part: N-terminal part of ETV6 (TEL), the oligomerising partner of the fusion; already named as the first entry; P41212 (Transcription factor ETV6)
# Procedure, shortened: (§1)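 Ba/F3 cells expressing ETV6-FGFR4 or ETV6-FGFR4-V550L exposed for 72 h to 9 concentrations from 4-fold serial dilution (0.25% DMSO final). Viability by CCK-8, OD 450 nm after 1–2 h at 37 °C, relative to untreated and cell-free blanks; IC50 from curve fitting.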
# FGFR4 V550L kinase = FGFR4 V550L kinase (Homo sapiens, UniProt P22455, V550L); test: Inhibition of FGFR4 V550L mutant kinase activity (ULight-labeled PolyGT, EU665/EU615 reading); type: biochemical; conditions: FGFR4 V550L kinase 1 nM, ATP 10 μM, enzymatic reaction 2 hours
# Procedure, shortened: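 TR-FRET kinase assay: 1 nM FGFR4 V550L, 10 μM ATP, 100 nM ULight-PolyGT substrate, 2 h at room temperature after 5 min compound–enzyme preincubation, 1% DMSO. Compound tested as 11-point 3-fold dilution from 2.5 μM to 0.042 nM final. Signal as EU665/EU615 ratio; IC50 fitted from % inhibition.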
# FGFR4 kinase = FGFR4 kinase (Homo sapiens, UniProt P22455); test: Inhibition of FGFR4 kinase activity (ULight-labeled JAK-1 peptide, EU665/EU615 reading); type: biochemical; conditions: FGFR4 kinase 3.85 nM, ATP 100 μM, enzymatic reaction 2 hours
# Procedure, shortened: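 TR-FRET kinase assay using 3.85 nM FGFR4, 100 μM ATP and 100 nM ULight-JAK-1 (Tyr1023) peptide; 5 min enzyme–compound preincubation, then 2 h at room temperature. Compounds at 11 3-fold dilutions from 2.5 μM down to 0.042 nM, 1% DMSO. IC50 from EU665/EU615 ratio inhibition curves.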
# Ba/F3 ETV6-FGFR4 cells = molecular target: T2, Ba/F3 ETV6-FGFR4 cells (Homo sapiens, UniProt P22455); test: Inhibition of cell proliferation (CCK-8), Ba/F3 ETV6-FGFR4 cells; type: cell-based; conditions: 72 hours of incubation, read-out: Ba/F3 ETV6-FGFR4 IC50
# T2 construct: fused on or other part: N-terminal part of ETV6 (TEL), the oligomerising partner that makes the FGFR4 kinase constitutively active; P41212 (Transcription factor ETV6)
# Procedure, shortened: as §1
# FGFR4 V550L kinase, sequence (P22455 22-802 V550L): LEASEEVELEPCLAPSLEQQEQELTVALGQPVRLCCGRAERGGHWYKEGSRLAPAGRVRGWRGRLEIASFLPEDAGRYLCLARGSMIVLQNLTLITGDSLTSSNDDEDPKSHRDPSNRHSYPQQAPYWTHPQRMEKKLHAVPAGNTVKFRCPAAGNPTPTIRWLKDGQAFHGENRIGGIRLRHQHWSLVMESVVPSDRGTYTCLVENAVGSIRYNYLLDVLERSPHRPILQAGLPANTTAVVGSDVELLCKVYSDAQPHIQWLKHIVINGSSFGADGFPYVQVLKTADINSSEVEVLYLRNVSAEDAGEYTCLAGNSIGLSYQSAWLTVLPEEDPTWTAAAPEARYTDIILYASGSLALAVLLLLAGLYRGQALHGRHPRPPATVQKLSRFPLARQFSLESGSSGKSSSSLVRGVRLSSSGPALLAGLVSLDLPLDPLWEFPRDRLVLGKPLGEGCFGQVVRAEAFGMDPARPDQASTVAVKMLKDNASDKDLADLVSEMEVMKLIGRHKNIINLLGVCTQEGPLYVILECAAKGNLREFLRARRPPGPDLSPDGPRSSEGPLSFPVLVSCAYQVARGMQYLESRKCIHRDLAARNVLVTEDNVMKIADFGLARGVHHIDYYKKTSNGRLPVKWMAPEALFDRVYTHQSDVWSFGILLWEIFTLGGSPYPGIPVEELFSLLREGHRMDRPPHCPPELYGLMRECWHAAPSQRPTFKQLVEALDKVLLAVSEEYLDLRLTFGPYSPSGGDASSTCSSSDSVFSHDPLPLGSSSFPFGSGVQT
# T1 sequence (P22455 whole entry V550L, the tested form may be a part): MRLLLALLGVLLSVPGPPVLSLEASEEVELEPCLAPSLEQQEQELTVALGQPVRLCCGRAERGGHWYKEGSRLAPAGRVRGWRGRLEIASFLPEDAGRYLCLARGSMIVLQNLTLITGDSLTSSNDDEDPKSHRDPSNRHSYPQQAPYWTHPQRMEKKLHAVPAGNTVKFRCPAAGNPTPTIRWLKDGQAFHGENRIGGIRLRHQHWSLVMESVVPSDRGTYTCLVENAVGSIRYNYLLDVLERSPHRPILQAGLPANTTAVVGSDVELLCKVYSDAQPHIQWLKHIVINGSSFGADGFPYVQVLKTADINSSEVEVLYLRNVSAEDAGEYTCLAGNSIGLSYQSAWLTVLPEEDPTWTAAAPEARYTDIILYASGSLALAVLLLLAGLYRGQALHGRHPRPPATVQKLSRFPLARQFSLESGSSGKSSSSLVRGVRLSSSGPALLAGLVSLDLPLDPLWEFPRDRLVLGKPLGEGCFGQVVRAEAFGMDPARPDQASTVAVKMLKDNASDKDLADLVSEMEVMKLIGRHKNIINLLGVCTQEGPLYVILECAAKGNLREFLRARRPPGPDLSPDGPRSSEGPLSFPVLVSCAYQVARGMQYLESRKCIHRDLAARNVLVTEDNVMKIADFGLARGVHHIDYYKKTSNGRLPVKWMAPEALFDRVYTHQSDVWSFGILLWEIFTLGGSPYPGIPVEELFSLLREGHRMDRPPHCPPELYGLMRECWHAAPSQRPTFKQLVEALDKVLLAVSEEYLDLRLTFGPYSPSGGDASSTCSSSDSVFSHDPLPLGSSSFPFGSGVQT
# T2 sequence (P22455 whole entry, change not shown, the tested form may be a part): as the sequence (P22455 whole entry V550L, the tested form may be a part) above, with L550V counted along it
# FGFR4 kinase, sequence (P22455 22-802): as the sequence (P22455 22-802 V550L) above, with L529V counted along it
GI50 [1] [nM],IC50 (FGFR4 V550L kinase) [nM],IC50 (FGFR4 kinase) [nM],GI50 (Ba/F3 ETV6-FGFR4 cells) [nM],Compound
≤ 10,10 to 50,10 to 50,≤ 10,"C=CC(=O)Nc1cc(N2CCC(N3CCN(C)C(=O)C3)CC2)ccc1Nc1ncc(C#N)c(Nc2ccccc2OC(C)C)n1 [Example 43, N-(2-((5-cyano-4-((2-isopropoxyphenyl)amino)pyrimidin-2-yl)amino)-5-(4-(4-methyl-3-oxopiperazin-1-yl)piperidin-1-yl)phenyl) acrylamide]"
≤ 10,10 to 50,10 to 50,≤ 10,"C=CC(=O)Nc1cc(N2CCC(N3CCN(C)C(=O)C3)CC2)c(F)cc1Nc1ncc(C#N)c(Nc2ccccc2OC(C)C)n1 [Example 44, N-(2-((5-cyano-4-((2-isopropoxyphenyl)amino)pyrimidin-2-yl)amino)-4-fluoro-5-(4-(4-methyl-3-oxopiperazin-1-yl)piperidin-1-yl)phenyl) acrylamide]"
≤ 10,10 to 50,10 to 50,≤ 10,"C=CC(=O)Nc1cc(N2CCC(N3CCN(C)C(=O)C3)CC2)ccc1Nc1ncc(C#N)c(Nc2ccc(F)cc2OC(C)C)n1 [Example 45, N-(2-((5-cyano-4-((4-fluoro-2-isopropoxyphenyl)amino)pyrimidin-2-yl)amino)-5-(4-(4-methyl-3-oxopiperazin-1-yl)piperidin-1-yl)phenyl) acrylamide]"
≤ 10,10 to 50,10 to 50,≤ 10,"C=CC(=O)Nc1cc(N2CCC(N3CCN(C)CC3=O)CC2)ccc1Nc1ncc(C#N)c(Nc2ccccc2OC(C)C)n1 [Example 46, N-(2-((5-cyano-4-((2-isopropoxyphenyl)amino)pyrimidin-2-yl)amino)-5-(4-(4-methyl-2-oxopiperazin-1-yl)piperidin-1-yl)phenyl) acrylamide]"
≤ 10,10 to 50,10 to 50,≤ 10,"C=CC(=O)Nc1cc(N2CCC(N3CCN(C)CC3=O)CC2)ccc1Nc1ncc(C#N)c(Nc2ccc(F)cc2OC(C)C)n1 [Example 47, N-(2-((5-cyano-4-((4-fluoro-2-isopropoxyphenyl)amino)pyrimidin-2-yl)amino)-5-(4-(4-methyl-2-oxopiperazin-1-yl)piperidin-1-yl)phenyl) acrylamide]"
≤ 10,10 to 50,10 to 50,≤ 10,"C=CC(=O)Nc1cc(N2CCC(N3CCN(C)CC3=O)CC2)c(F)cc1Nc1ncc(C#N)c(Nc2ccccc2OC(C)C)n1 [Example 48, N-(2-((5-cyano-4-((2-isopropoxyphenyl)amino)pyrimidin-2-yl)amino)-4-fluoro-5-(4-(4-methyl-2-oxopiperazin-1-yl)piperidin-1-yl)phenyl) acrylamide]"
≤ 10,≤ 10,≤ 10,≤ 10,"C=CC(=O)Nc1cc(N2CCN(C3CCN(C)CC3)CC2)ccc1Nc1ncc(C#N)c(Nc2ccccc2OC(C)C)n1 [Example 49, N-(2-((5-cyano-4-((2-isopropoxyphenyl)amino)pyrimidin-2-yl)amino)-5-(4-(1-methylpiperidin-4-yl)piperazin-1-yl)phenyl) acrylamide]"
≤ 10,≤ 10,10 to 50,≤ 10,"C=CC(=O)Nc1cc(N2CCC(N3CCN(C(C)=O)CC3)CC2)ccc1Nc1ncc(C#N)c(Nc2ccccc2OC(C)C)n1 [Example 50, N-(5-(4-(4-acetylpiperazin-1-yl)piperidin-1-yl)-2-((5-cyano-4-((2-isopropoxyphenyl)amino)pyrimidin-2-yl)amino)phenyl) acrylamide]"
≤ 10,10 to 50,100 to 1000,≤ 10,"C=CC(=O)Nc1cc(N2CCC(N3CCN(S(C)(=O)=O)CC3)CC2)ccc1Nc1ncc(C#N)c(Nc2ccccc2OC(C)C)n1 [Example 51, N-(2-((5-cyano-4-((2-isopropoxyphenyl)amino)pyrimidin-2-yl)amino)-5-(4-(4-(methylsulfonyl)piperazin-1-yl)piperidin-1-yl)phenyl) acrylamide]"
100 to 1000,≤ 10,≤ 10,100 to 1000,"C=CC(=O)Nc1cc(N2CCC(N3CCN(C)CC3)CC2)ccc1Nc1ncc(C#N)c(Nc2ccc(C(=O)O)cc2OC(C)C)n1 [Example 52, 4-((2-((2-acrylamido-4-(4-(4-methylpiperazin-1-yl)piperidin-1-yl)phenyl)amino)-5-cyanopyrimidin-4-yl)amino)-3-isopropoxybenzoic acid]"
≤ 10,≤ 10,50 to 100,≤ 10,"C=CC(=O)Nc1cc(N2CCC(N3CCN(C)CC3)CC2)c(OC)cc1Nc1ncc(C#N)c(Nc2ccccc2OC(C)C)n1 [Example 53, N-(2-((5-cyano-4-((2-isopropoxyphenyl)amino)pyrimidin-2-yl)amino)-4-methoxy-5-(4-(4-methylpiperazin-1-yl)piperidin-1-yl)phenyl) acrylamide]"
≤ 10,≤ 10,10 to 50,≤ 10,C=CC(=O)Nc1cc(N(C)CCN(C)C)ccc1Nc1ncc(C#N)c(Nc2ccccc2OC(C)C)n1 [Example 54]
≤ 10,≤ 10,10 to 50,≤ 10,"C=CC(=O)Nc1cc(N(C)CCN(C)C)c(OC)cc1Nc1ncc(C#N)c(Nc2ccccc2OC(C)C)n1 [Example 55, N-(2-((5-cyano-4-((2-isopropoxyphenyl)amino)pyrimidin-2-yl)amino)-5-((2-(dimethylamino)ethyl)(methyl)amino)-4-methoxyphenyl) acrylamide]"
≤ 10,≤ 10,10 to 50,≤ 10,"C=CC(=O)Nc1cc(N2CCC(N(C)CCOC)CC2)ccc1Nc1ncc(C#N)c(Nc2ccccc2OC(C)C)n1 [Example 56, N-(2-((5-cyano-4-((2-isopropoxyphenyl)amino)pyrimidin-2-yl)amino)-5-(4-((2-methoxyethyl) (methyl)amino)piperidin-1-yl)phenyl) acrylamide]"
≤ 10,≤ 10,10 to 50,≤ 10,"C=CC(=O)Nc1cc(N2CCC(N(C)CCN(C)C)CC2)ccc1Nc1ncc(C#N)c(Nc2ccccc2OC(C)C)n1 [Example 57, N-(2-((5-cyano-4-((2-isopropoxyphenyl)amino)pyrimidin-2-yl)amino)-5-(4-((2-(dimethylamino)ethyl)(methyl)amino)piperidin-1-yl)phenyl) acrylamide]"
≤ 10,≤ 10,10 to 50,≤ 10,"C=CC(=O)Nc1cc(N2CCC(N3CCN(CCOC)CC3)CC2)ccc1Nc1ncc(C#N)c(Nc2ccccc2OC(C)C)n1 [Example 58, N-(2-((5-cyano-4-((2-isopropoxyphenyl)amino)pyrimidin-2-yl)amino)-5-(4-(4-(2-methoxyethyl)piperazin-1-yl)piperidin-1-yl)phenyl) acrylamide]"
≤ 10,≤ 10,10 to 50,≤ 10,"C=CC(=O)Nc1cc(N2CCC(N3CCN(CCO)CC3)CC2)ccc1Nc1ncc(C#N)c(Nc2ccccc2OC(C)C)n1 [Example 59, N-(2-((5-cyano-4-((2-isopropoxyphenyl)amino)pyrimidin-2-yl)amino)-5-(4-(4-(2-hydroxyethyl)piperazin-1-yl)piperidin-1-yl)phenyl) acrylamide]"
